test system: amyloid β deposition in the hippocampus; assay: Amyloid β deposition inhibitory activity: amyloid β immunohistochemistry of the hippocampus in senescene accelerated mice (SAMP8); format: in vivo; conditions: hippocampus immunohistochemistry
Procedure: Senescene accelerated mice (SAMP8) (male, 8 months old at the beginning of the study) were used for experiment. Approximately 0.1 mg/kg/day of Compound 1 was given in drinking water. Eight weeks after the dosing, the mouse brain was removed, Methacarn-fixed (methanol:chloroform:acetic acid=6:3:1), and paraffin-embedded. Then, sections of 8 μm in thickness were prepared using a microtome.
The sections were immunostained with streptavidin-biotin using a VECTASTATIN ABC kit. After one hour of incubation in 10% normal goat serum, the anti-amyloid β (Aβ) antibody was diluted with PBS to ten fold and incubated at 4° C. overnight. The following day, PBS rinsing, 1.5 hours of incubation with biotinylated anti-rabbit secondary antibody, PBS rinsing, and 1.5 hours of incubation with peroxidase-labeled streptavidin were conducted. The immunoreaction was visualized with DAB and specimens were prepared.
Immunoreactive Aβ-like granules in the hippocampus were counted under the microscope. The Aβ-like immunoreactive granule was observed as brown deposits in the hippocampus. The count was made for one section per individual.

SMILES | amyloid β deposition (overall conclusion)
O=C1N=C2C=CC=CN2C12Cc1ccccc1C2 [Compound 1, spiro[imidazo[1,2-a]pyridin-2(3H)-one-3,2′-indan]] | inhibits amyloid β deposition

same assay, conditions: hippocampus, one section per individual, oral 0.002, 0.01 and 0.1 mg/kg in drinking water for 2 months, FIG. 2

SMILES | number of amyloid β-immunoreactive granules
O=C1N=C2C=CC=CN2C12Cc1ccccc1C2 [Compound 1, spiro[imidazo[1,2-a]pyridin-2(3H)-one-3,2′-indan]] | significantly (*) decreased

same assay, conditions: male, 8 months old, Compound 1 in drinking water at oral dosage of 0.002, 0.01 and 0.1 mg/kg/day for 2 months, vs tap water

SMILES | amyloid β-like immunoreactivity in the hippocampus
O=C1N=C2C=CC=CN2C12Cc1ccccc1C2 [Compound 1, spiro[imidazo[1,2-a]pyridin-2(3H)-one-3,2′-indan]] | reduced

test system: not listed separately; assay: preclinical study (safety); conditions: not given

SMILES | safety in the preclinical study
O=C1N=C2C=CC=CN2C12Cc1ccccc1C2 [Compound 1, spiro[imidazo[1,2-a]pyridin-2(3H)-one-3,2′-indan]] | highly safe

test system: not given; assay: not given; conditions: not given

SMILES | melting point
O=C1N=C2C=CC=CN2C1(Cc1ccc(Cl)cc1)Cc1ccc(Cl)cc1 [Compound 78, 3,3-bis(4-chlorobenzyl)imidazo[1,2-a]pyridin-2(3H)-one] | 293 to 296 °C
CN(C)c1ccc(CC2(Cc3ccc(N(C)C)cc3)C(=O)N=C3C=CC=CN32)cc1 [Compound 18, 3,3-bis(4-dimethylaminobenzyl)imidazo[1,2-a]pyridin-2(3H)-one] | > 300 °C
O=C1N=C2C(O)=CC=CN2C1(Cc1ccccc1)Cc1ccccc1 [Compound 36, 3,3-dibenzyl-8-hydroxyimidazo[1,2-a]pyridin-2(3H)-one] | 283 to 285 °C
O=C1N=C2C=CC=CN2C1(C1C=CCCC1)C1C=CCCC1 (stereo not shown) [Compound 67, 3,3-bis(2-cyclohexenyl)imidazo[1,2-a]pyridin-2(3H)-one] | 245 to 247 °C
O=C1N=C2c3ccccc3C=CN2C12CCCC2 [Compound 75, spiro[imidazo[2,1-a]isoquinolin-2(3H)-one-3,1′-cyclopentane]] | 164.5 to 167.5 °C
O=C1N=C2CCCCN2C12Cc1ccccc1C2 [Compound 77, spiro[5,6,7,8-tetrahydroimidazo[1,2-a]pyridin-2(3H)-one-3,2′-indan]] | 276.5 °C (dec.)
O=C1N=C2C=CC=CN2C1(CCCc1ccccc1)CCCc1ccccc1 [Compound 26, 3,3-bis(3-phenyl-1-propyl)imidazo[1,2-a]pyridin-2(3H)-one] | 227 to 228 °C
COC(=O)c1ccc(CC2(Cc3ccc(C(=O)OC)cc3)C(=O)N=C3C=CC=CN32)cc1 [Compound 40, 3,3-bis(4-methoxycarbonylbenzyl)imidazo[1,2-a]pyridin-2(3H)-one] | 289 to 290 °C
O=C1N=C2C=CC(Cl)=CN2C1(Cc1ccccc1)Cc1ccccc1 [Compound 5, 3,3-dibenzyl-6-chloroimidazo[1,2-a]pyridin-2(3H)-one] | 246 to 248 °C
O=C1N=C2C=CC=CN2C1(Cc1ccc(-c2ccccc2)cc1)Cc1ccc(-c2ccccc2)cc1 [Compound 21, 3,3-bis(4-biphenylmethyl)imidazo[1,2-a]pyridin-2(3H)-one] | > 300 °C
O=C1N=C2C=CC=CN2C1(Cc1ccc(F)cc1F)Cc1ccc(F)cc1F [Compound 28, 3,3-bis(2,4-difluorobenzyl)imidazo[1,2-a]pyridin-2(3H)-one] | 269 to 271 °C
CC1=CC2=NC(=O)C(Cc3ccccc3)(Cc3ccccc3)N2C(C)=C1 [Compound 10, 3,3-dibenzyl-5,7-dimethylimidazo[1,2-a]pyridin-2(3H)-one] | 237 to 238 °C
O=C1N=C2C=CC=CN2C1(Cc1cccs1)Cc1cccs1 [Compound 30, 3,3-bis(2-thienylmethyl)imidazo[1,2-a]pyridin-2(3H)-one] | 289.5 °C (dec.)
Oc1nc2ccccn2c1Cc1ccc2ccccc2c1 [Compound 52, 2-hydroxy-3-(2-naphthylmethyl)imidazo[1,2-a]pyridine] | 205 °C (dec.)
O=C1N=C2C(Cl)=CC(C(F)(F)F)=CN2C1(Cc1ccccc1)Cc1ccccc1 [Compound 14, 3,3-dibenzyl-8-chloro-6-trifluoromethylimidazo[1,2-a]pyridin-2(3H)-one] | 234 to 236 °C
CCCCC1(CCCC)C(=O)N=C2CCCCN21 [Compound 73, 3,3-dibutyl-5,6,7,8-tetrahydroimidazo[1,2-a]pyridin-2(3H)-one] | 35 to 40 °C
O=C1N=C2C=CC=CN2C1(Cc1ccc([N+](=O)[O-])cc1)Cc1ccc([N+](=O)[O-])cc1 | > 300 °C
O=C1N=C2C=CC=CN2C12Cc1ccc(C(F)(F)F)cc1C2 (stereo not shown) [Compound 64, spiro[imidazo[1,2-a]pyridin-2(3H)-one-3,2′-(5′-trifluoromethylindan)]] | 176.5 to 179.5 °C
O=C1N=C2C=CC=CN2C12Cc1cccc3cccc(c13)C2 [Compound 27, spiro[imidazo[1,2-a]pyridin-2(3H)-one-3,2′-[2,3]dihydrophenarene]] | 262 °C (dec.)
O=C1N=C2C=CC=CN2C12Cc1cccc(F)c1C2 (stereo not shown) [Compound 56, spiro[imidazo[1,2-a]pyridin-2(3H)-one-3,2′-(4′-fluoroindan)]] | 148 °C (dec.)
O=C1N=C2C(OCc3ccccc3)=CC=CN2C1(Cc1ccccc1)Cc1ccccc1 [Compound 7, 3,3-dibenzyl-8-benzyloxyimidazo[1,2-a]pyridin-2(3H)-one] | 240 to 241 °C

From patent publication US20080103158A1, “METHODS FOR TREATING DELAYING THE PROGRESSION OF ALZHEIMER'S DISEASE WITH HETEROCYCLIC COMPOUNDS” (ZENYAKU KOGYO KABUSHIKI KAISHA, priority 2006, published 2008)
